Data reported in PubChem BioAssay (NCI).
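Compound exposure: 48 hours, 5 concentrations, 96-well plates. Definition used: TGI = concentration required for complete inhibition of growth.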

Key:
Test in all cases: inhibition of tumour cell growth, NCI panel, 48 h
[1] = test system: HOP-92 NSCLC
[2] = test system: OVCAR-5 ovarian
[3] = test system: UO-31 renal
[4] = test system: SK-MEL-5 melanoma
[5] = test system: K-562 leukemia
[6] = test system: OVCAR-4 ovarian
[7] = test system: M19-MEL melanoma
[8] = test system: DMS 114 small cell lung
[9] = test system: M14 melanoma
[10] = test system: SNB-78 CNS
[11] = test system: ACHN renal
[12] = test system: DMS 273 small cell lung
[13] = test system: RPMI-8226 leukemia
[14] = test system: 786-0 renal
[15] = test system: OVCAR-3 ovarian
[16] = test system: SNB-75 CNS
[17] = test system: SF-268 CNS
[18] = test system: HCC-2998 colon
[19] = test system: SF-539 CNS
[20] = test system: SK-OV-3 ovarian
[21] = test system: EKVX NSCLC
[22] = test system: CCRF-CEM leukemia
[23] = test system: U251 CNS
[24] = test system: DLD-1 colon
[25] = test system: A498 renal
[26] = test system: TK-10 renal
[27] = test system: MOLT-4 leukemia
[28] = test system: HCT-15 colon
[29] = test system: LXFL 529 NSCLC
[30] = test system: HL-60(TB) leukemia
[31] = test system: HCT-116 colon
[32] = test system: NCI-H460 lung
[33] = test system: NCI-H23 lung
[34] = test system: SF-295 CNS
[35] = test system: SR leukemia
[36] = test system: SN12C renal
[37] = test system: HOP-18 NSCLC
[38] = test system: OVCAR-8 ovarian
[39] = test system: NCI-H522 lung
[40] = test system: HOP-62 NSCLC
[41] = test system: A549 NSCLC
[42] = test system: SW-620 colon
[43] = test system: SNB-19 CNS
[44] = test system: KM20L2 colon
[45] = test system: SK-MEL-28 melanoma
[46] = test system: HT29 colon
[47] = test system: KM12 colon
[48] = test system: IGROV1 ovarian
[49] = test system: XF 498 CNS
[50] = test system: UACC-257 melanoma
[51] = test system: CAKI-1 renal
[52] = test system: UACC-62 melanoma
[53] = test system: COLO 205 colon
[54] = test system: MALME-3M melanoma
[55] = test system: LOX IMVI melanoma
[56] = test system: RXF 393 renal
[57] = test system: SK-MEL-2 melanoma

Measured: TGI

C/C(N=NS(=O)(=O)c1ccc([N+](=O)[O-])cc1)=C1\C=CC=CN1O
not listed: [53] | [54] | [55] | [56] | [57]
> 100 µM: all other assays above

Cc1nc2cc(Nc3ccccc3C(=O)O)ccc2s1
not listed: [10] | [21] | [49] | [50]
> 100 µM: all other assays above
